From ChEMBL document CHEMBL3621049, “Imidazole derivatives show anticancer potential by inducing apoptosis and cellular senescence” (2014)
The source made the active and inactive calls. The calls are words filed in the database; no cut-off is given here.

Assays:
HL-60(TB) = test: Growth inhibition of human HL-60(TB) cells at 10 uM by sulforhodamine B assay; type: functional, cell-based
K562 = test: Growth inhibition of human K562 cells at 10 uM by sulforhodamine B assay; type: functional, cell-based
RPMI-8226 = test: Growth inhibition of human RPMI8226 cells at 10 uM by sulforhodamine B assay; type: functional, cell-based
NCI-H322M = test: Growth inhibition of human NCI-H322M cells at 10 uM by sulforhodamine B assay; type: functional, cell-based
NCI-H460 = test: Growth inhibition of human NCI-H460 cells at 10 uM by sulforhodamine B assay; type: functional, cell-based
NCI-H522 = test: Growth inhibition of human NCI-H522 cells at 10 uM by sulforhodamine B assay; type: functional, cell-based
COLO 205 = test: Growth inhibition of human COLO205 cells at 10 uM by sulforhodamine B assay; type: functional, cell-based
HT-29 = test: Growth inhibition of human HT-29 cells at 10 uM by sulforhodamine B assay; type: functional, cell-based
SNB-19 = test: Growth inhibition of human SNB19 cells at 10 uM by sulforhodamine B assay; type: functional, cell-based
U-251 = test: Growth inhibition of human U251 cells at 10 uM by sulforhodamine B assay; type: functional, cell-based
LOX IMVI = test: Growth inhibition of human LOXIMVI cells at 10 uM by sulforhodamine B assay; type: functional, cell-based
M14 = test: Growth inhibition of human M14 cells at 10 uM by sulforhodamine B assay; type: functional, cell-based
SK-MEL-28 = test: Growth inhibition of human SK-MEL-28 cells at 10 uM by sulforhodamine B assay; type: functional, cell-based
SK-MEL-5 = test: Growth inhibition of human SK-MEL-5 cells at 10 uM by sulforhodamine B assay; type: functional, cell-based
UACC-257 = test: Growth inhibition of human UACC257 cells at 10 uM by sulforhodamine B assay; type: functional, cell-based
OVCAR-5 = test: Growth inhibition of human OVCAR5 cells at 10 uM by sulforhodamine B assay; type: functional, cell-based
Hs-578T = test: Growth inhibition of human Hs 578T cells at 10 uM by sulforhodamine B assay; type: functional, cell-based
BT-549 = test: Growth inhibition of human BT549 cells at 10 uM by sulforhodamine B assay; type: functional, cell-based
TK-10 = test: Growth inhibition of human TK10 cells at 10 uM by sulforhodamine B assay; type: functional, cell-based
UACC-62 = test: Growth inhibition of human UACC62 cells at 10 uM by sulforhodamine B assay; type: functional, cell-based
HOP-92 = test: Growth inhibition of human HOP92 cells at 10 uM by sulforhodamine B assay; type: functional, cell-based
HCC 2998 = test: Growth inhibition of human HCC2998 cells at 10 uM by sulforhodamine B assay; type: functional, cell-based
A549 [1] = test: Cytotoxicity against human A549 cells assessed as decrease in cell viability at 10 uM after 24 hrs by MTT assay relative to control; type: functional
A549 [2] = test: Cell cycle arrest in human A549 cells assessed as accumulation at G0/G1 phase at 5 uM after 48 hrs using propidium iodide staining by flow cytometer analysis (reference value: 79.34%); type: functional
A549 [3] = test: Cell cycle arrest in human A549 cells assessed as accumulation at sub-G1 phase at 10 uM after 48 hrs using propidium iodide staining by flow cytometer analysis (reference value: 0.96%); type: functional
A549 [4] = test: Cell cycle arrest in human A549 cells assessed as accumulation at G0/G1 phase at 10 uM after 48 hrs using propidium iodide staining by flow cytometer analysis (reference value: 79.34%); type: functional
A549 [5] = test: Cell cycle arrest in human A549 cells assessed as accumulation at G2/M phase at 10 uM after 48 hrs using propidium iodide staining by flow cytometer analysis (reference value: 13.02%); type: functional
A549 [6] = test: Induction of apoptosis in human A549 cells assessed as activation of caspase; type: functional, cell-based

## COc1ccc(-c2nc(-c3ccccn3)c(-c3ccccn3)n2CC(C)C)cc1OC1CCCC1
HL-60(TB)
  growth inhibition (GI): Active
K562
  growth inhibition (GI): Active
RPMI-8226
  growth inhibition (GI): Active
NCI-H322M
  growth inhibition (GI): Active
NCI-H460
  growth inhibition (GI): Active
NCI-H522
  growth inhibition (GI): Active
COLO 205
  growth inhibition (GI): Active
HT-29
  growth inhibition (GI): Active
SNB-19
  growth inhibition (GI): Active
U-251
  growth inhibition (GI): Active
LOX IMVI
  growth inhibition (GI): Active
M14
  growth inhibition (GI): Active
SK-MEL-28
  growth inhibition (GI): Active
SK-MEL-5
  growth inhibition (GI): Active
UACC-257
  growth inhibition (GI): Active
OVCAR-5
  growth inhibition (GI): Active
Hs-578T
  growth inhibition (GI): Active
BT-549
  growth inhibition (GI): Active
TK-10
  growth inhibition (GI): Active
UACC-62
  growth inhibition (GI): Active
HOP-92
  growth inhibition (GI): Active
HCC 2998
  growth inhibition (GI): Active
A549 [1]
  fold change (FC): 2
A549 [2]
  Activity: 89.38%
A549 [3]
  Activity: 7.63%
A549 [4]
  Activity: 75.7%
A549 [5]
  Activity: 6.73%
A549 [6]
  Activity: inactive
